In one series the target is T1, CYP17A1 (Homo sapiens, UniProt P05093).
T1 sequence (P05093 with tags, fused parts or gaps): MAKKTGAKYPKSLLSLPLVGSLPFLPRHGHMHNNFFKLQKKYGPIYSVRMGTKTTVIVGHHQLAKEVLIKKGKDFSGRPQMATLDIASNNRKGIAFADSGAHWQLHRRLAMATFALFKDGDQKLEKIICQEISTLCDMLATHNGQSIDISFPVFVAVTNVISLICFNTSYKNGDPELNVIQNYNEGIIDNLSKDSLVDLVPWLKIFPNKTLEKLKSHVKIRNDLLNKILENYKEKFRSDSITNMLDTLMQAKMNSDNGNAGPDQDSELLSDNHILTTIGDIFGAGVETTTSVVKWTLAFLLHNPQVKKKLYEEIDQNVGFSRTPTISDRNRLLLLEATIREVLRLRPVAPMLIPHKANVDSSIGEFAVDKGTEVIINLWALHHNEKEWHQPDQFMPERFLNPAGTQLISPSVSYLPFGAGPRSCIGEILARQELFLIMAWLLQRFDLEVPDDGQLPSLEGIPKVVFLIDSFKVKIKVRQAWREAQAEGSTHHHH
The series can be described thus: UV-visible spectral ligand binding assay, isolated CYP17A1. The following applies: difference spectra.

The target of the next series is T2, FMND/CYP17A1 (Homo sapiens, UniProt P05093+P16435).
T2 sequence (P16435+P05093 with tags, fused parts or gaps): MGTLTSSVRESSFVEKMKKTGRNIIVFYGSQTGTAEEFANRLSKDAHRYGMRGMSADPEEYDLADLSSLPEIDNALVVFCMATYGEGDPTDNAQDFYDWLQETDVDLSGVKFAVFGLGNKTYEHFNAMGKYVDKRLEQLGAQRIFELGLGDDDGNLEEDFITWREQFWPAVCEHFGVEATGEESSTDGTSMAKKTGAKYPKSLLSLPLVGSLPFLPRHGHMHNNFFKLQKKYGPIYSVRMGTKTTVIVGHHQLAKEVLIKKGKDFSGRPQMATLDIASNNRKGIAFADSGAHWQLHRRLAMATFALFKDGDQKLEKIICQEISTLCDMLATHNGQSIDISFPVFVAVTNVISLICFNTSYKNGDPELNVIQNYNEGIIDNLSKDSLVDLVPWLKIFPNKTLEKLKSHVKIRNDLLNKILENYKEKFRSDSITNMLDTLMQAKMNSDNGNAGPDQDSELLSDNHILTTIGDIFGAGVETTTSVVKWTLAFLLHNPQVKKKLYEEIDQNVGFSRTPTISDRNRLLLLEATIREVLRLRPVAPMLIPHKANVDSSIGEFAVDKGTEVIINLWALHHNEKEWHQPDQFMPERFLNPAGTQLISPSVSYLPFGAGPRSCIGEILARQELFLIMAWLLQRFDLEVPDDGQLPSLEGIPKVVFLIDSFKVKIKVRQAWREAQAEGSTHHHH
The format is binding. Conditions: for spectral shift (binding mode): difference spectra, FMND/CYP17A1 fusion, FMN domain oxidized.

Series [1] addresses T3, FMND/CYP3A4 (Homo sapiens, UniProt P08684). The following applies: FMND/CYP3A4 compared with CYP3A4.
Another series deals with T4, CYP2A6 (Homo sapiens, UniProt P11509).
T4 sequence (P11509 with tags, fused parts or gaps): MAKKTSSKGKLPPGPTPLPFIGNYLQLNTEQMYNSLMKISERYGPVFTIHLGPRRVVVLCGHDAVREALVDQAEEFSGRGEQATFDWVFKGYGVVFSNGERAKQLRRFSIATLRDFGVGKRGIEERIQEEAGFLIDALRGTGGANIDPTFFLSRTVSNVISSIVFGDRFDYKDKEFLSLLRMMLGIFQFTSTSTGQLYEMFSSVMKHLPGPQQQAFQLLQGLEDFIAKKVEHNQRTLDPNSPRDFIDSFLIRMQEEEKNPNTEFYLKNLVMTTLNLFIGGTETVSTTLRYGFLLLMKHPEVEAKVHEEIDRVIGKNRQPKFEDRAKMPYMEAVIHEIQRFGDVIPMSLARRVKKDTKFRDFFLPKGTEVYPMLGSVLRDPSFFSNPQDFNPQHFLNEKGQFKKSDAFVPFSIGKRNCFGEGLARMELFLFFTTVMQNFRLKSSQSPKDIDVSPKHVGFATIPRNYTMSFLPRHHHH
Put plainly: UV-visible spectral ligand binding assay, isolated CYP2A6. Conditions: difference spectra.

The target in series [2] is T5, FMND/CYP2A6 (Homo sapiens, UniProt P11509).
T5 sequence (P11509 with tags, fused parts or gaps): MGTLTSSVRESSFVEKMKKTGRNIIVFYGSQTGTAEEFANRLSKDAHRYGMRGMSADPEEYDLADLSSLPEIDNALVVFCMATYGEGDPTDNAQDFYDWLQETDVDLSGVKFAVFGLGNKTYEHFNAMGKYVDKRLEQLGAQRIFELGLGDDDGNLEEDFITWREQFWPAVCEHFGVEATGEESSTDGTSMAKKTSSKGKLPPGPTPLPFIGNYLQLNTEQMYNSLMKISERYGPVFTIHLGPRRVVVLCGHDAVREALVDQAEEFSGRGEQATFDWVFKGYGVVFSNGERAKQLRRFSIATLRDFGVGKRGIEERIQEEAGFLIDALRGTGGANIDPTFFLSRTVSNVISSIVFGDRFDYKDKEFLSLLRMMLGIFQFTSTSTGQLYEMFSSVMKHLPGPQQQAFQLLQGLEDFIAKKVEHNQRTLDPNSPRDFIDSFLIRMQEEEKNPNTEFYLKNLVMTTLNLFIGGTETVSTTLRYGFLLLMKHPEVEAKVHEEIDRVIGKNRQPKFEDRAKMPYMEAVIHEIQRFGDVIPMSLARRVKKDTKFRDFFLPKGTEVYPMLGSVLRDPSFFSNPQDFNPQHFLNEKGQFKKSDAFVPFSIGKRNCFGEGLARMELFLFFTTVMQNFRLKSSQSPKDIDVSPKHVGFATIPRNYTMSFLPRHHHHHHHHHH
The class given is binding. The following applies: for spectral shift (binding mode): difference spectra, FMND/CYP2A6 fusion, FMN domain oxidized.

Series [3] addresses T5, FMND/CYP2A6. The format is biochemical. The following applies: coumarin metabolism to 7-hydroxycoumarin, cumene hydroperoxide, FMND/CYP2A6 vs CYP2A6.
Series [4] deals with T3, FMND/CYP3A4. The class given is biochemical. The following applies: hydrocortisone metabolism to 6β-hydroxycortisol, cumene hydroperoxide, FMND/CYP3A4 vs CYP3A4.
Another series deals with T6, FMND/CYP21A2 (Homo sapiens, UniProt P08686+P16435, R103K).
T6 sequence (P16435+P08686 with tags, fused parts or gaps P08686:R103K): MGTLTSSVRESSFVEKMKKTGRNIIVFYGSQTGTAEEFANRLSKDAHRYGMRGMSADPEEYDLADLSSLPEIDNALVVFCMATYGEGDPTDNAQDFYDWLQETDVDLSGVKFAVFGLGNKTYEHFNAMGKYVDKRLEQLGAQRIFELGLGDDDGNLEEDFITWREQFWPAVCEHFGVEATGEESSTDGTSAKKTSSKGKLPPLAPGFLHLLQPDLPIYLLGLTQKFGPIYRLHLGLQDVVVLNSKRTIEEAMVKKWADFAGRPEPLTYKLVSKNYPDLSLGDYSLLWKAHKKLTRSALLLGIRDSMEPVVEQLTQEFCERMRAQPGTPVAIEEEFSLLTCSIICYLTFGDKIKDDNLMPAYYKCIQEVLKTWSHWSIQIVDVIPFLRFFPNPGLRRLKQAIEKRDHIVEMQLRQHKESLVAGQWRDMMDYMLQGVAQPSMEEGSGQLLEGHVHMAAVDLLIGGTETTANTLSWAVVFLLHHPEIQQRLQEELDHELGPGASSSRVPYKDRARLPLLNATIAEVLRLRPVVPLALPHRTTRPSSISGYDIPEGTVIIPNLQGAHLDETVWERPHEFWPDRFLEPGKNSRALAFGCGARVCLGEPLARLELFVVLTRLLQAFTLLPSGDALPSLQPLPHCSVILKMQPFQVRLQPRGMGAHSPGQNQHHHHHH
The format is binding. Conditions: FMND/CYP21A2 compared with CYP21A2.

In the next series the test system is FMND/CYP2D6. The class given is binding, human. The following applies: FMND/CYP2D6 compared with CYP2D6.
The mark [5] stands for this setting: FMND/CYP17A1 compared with CYP17A1.
[6] abbreviates: FMND/CYP2A6 compared with CYP2A6.

The text below walks through data of article PMC10481364 (The Journal of Biological Chemistry, 2023).

“Also recorded” adds a separate entry of the source.

As for `CC(=O)[C@@]1(O)CC[C@H]2[C@@H]3CC=C4C[C@@H](O)CC[C@]4(C)[C@H]3CC[C@@]21C` [17α-hydroxypregnenolone], the “spectral shift (binding mode)” value at CYP17A1 is “type I”. Besides, on FMND/CYP17A1 (setting [5]), the “decrease in Kd by FMN domain fusion” value worked out at 12%; the “effect of FMN domain fusion on saturation (ΔAmax), in words” value (“effect … (ΔAmax), in words” for short) is on record as “little effect”; the “increase in overall binding efficiency (ΔAmax/Kd) by FMN domain fusion” value was found to be 16%. Besides, the “spectral shift (binding mode)” value at FMND/CYP17A1 was “type I”.
Regarding `Clc1ccccc1C(c1ccccc1)(c1ccccc1)n1ccnc1` [clotrimazole], at FMND/CYP3A4 [1], the “reduction in the Kd value by FMND fusion” value was found to be 49% and the “reduction in total binding / final saturation (ΔAmax) by FMND fusion” value is listed as 58%.
Turning to `O=c1ccc2ccccc2o1` [coumarin], the “spectral shift (binding mode)” value at CYP2A6 is “type I”. Further, on FMND/CYP2A6 [2] (setting [6]), the “change in total ligand binding by FMN domain fusion, in words” value is reported as “relatively little change” and the “increase in the Kd value by FMN domain fusion” value was “more than 2 fold”. The “spectral shift (binding mode)” value at FMND/CYP2A6 [2] is “type I”. Also, on FMND/CYP2A6 [3], the “effect on Km, in words” value is on record as “little effect” and the “effect on catalytic efficiency, in words” value is “decreased”.
`C[C@]12CCC(=O)C=C1CC[C@@H]1[C@@H]2[C@@H](O)C[C@@]2(C)[C@H]1CC[C@]2(O)C(=O)CO` [hydrocortisone]: on FMND/CYP3A4 [4], the “decrease in Km by addition of the FMN domain” value is roughly 30% and the “decrease in kcat by addition of the FMN domain” value is roughly 21%. At FMND/CYP3A4 [1], the “reduction in the Kd value by FMND fusion” value worked out at 30% and the “reduction in total binding / final saturation (ΔAmax) by FMND fusion” value was 33%.
With `CC(=O)N1CCN(c2ccc(OCC3COC(Cn4ccnc4)(c4ccc(Cl)cc4Cl)O3)cc2)CC1` (stereo not shown) [ketoconazole], the “effect … (ΔAmax), in words” value on FMND/CYP17A1 (setting [5]) is “no significant changes; also recorded: essentially no effect”. On FMND/CYP21A2, the “decrease in total / maximal absorbance change (ΔAmax) by FMN domain fusion” value is reported as roughly 30% and the “increase in the dissociation constant by FMN domain fusion” value is listed as 31%.
In the case of `CC[C@@H]1C(=O)OC[C@@H]1Cc1cncn1C` [pilocarpine], in the series on FMND/CYP2D6, the “increase in affinity by FMN domain fusion” value is 37%, the “increase in ΔAmax/Kd binding efficiency by FMN domain fusion” value came to 32% and the “reduction in total binding at saturation by FMN domain fusion” value came out at 17%. On CYP2A6, the “spectral shift (binding mode)” value is listed as “type II”. On FMND/CYP2A6 [2] (setting [6]), the “change in the affinity by FMN domain fusion, in words” value is “no change” and the “decrease in total binding (ΔAmax) by FMN domain fusion” value is reported as 30%. Also, the “spectral shift (binding mode)” value on FMND/CYP2A6 [2] is on record as “type II”.
For the molecule `CC(=O)[C@H]1CC[C@H]2[C@@H]3CC=C4C[C@@H](O)CC[C@]4(C)[C@H]3CC[C@]12C` [pregnenolone], the “spectral shift (binding mode)” value at CYP17A1 and at FMND/CYP17A1 was “type I” throughout. Further, the “effect of FMN domain fusion on binding efficiency, in words” value at FMND/CYP17A1 (setting [5]) is recorded as “largely unchanged”. Further, on FMND/CYP17A1 (setting [5]), the “effect … (ΔAmax), in words” value was “increased”.
